From ChEMBL document CHEMBL1146148, “Hydroxyl radical scavenging by edaravone derivatives: Efficient scavenging by 3-methyl-1-(pyridin-2-yl)-5-pyrazolone with an intramolecular base” (Bioorg Med Chem Lett, 2006) come the findings set out here.

SMILES strings stand for the structures.

This assay is described as follows: Hydroxyl radical scavenging activity by ESR spin-trapping method. The assay is classed as functional.
Consider `CC1=NN(c2ccc([N+](=O)[O-])cc2)C(=O)C1`, for which half-maximal inhibition (IC50) was put at 500 µM.

On to `O=C1CC(C(F)(F)F)=NN1c1ccccc1`, for which it took 810 µM to reach half-maximal inhibition (IC50).

As to `CC1=NN(c2ccccc2)C(=O)C1c1ccccc1` (stereo not drawn), half-maximal inhibition (IC50) required 790 µM.

Turning to `CC1=NN(c2ccccc2)C(=O)C1C1CC1` (stereo not drawn), inhibition was half-maximal at 720 µM (IC50).

`CC1=NN(c2ccccc2)C(=O)C1C(=O)c1ccccc1` (stereo not drawn): half-maximal inhibition (IC50) required 610 µM.

Regarding `CC1=NN(c2ccccn2)C(=O)C1`, the half-maximal inhibitory concentration (IC50) (usually the concentration at which inhibition is half-maximal) amounted to 18 µM.

In turn, `O=C(NC1=NN(c2ccccc2)C(=O)C1)Oc1ccccc1` yielded an IC50 of 380 µM.

As for `CC1=NN(c2ccccc2)C(=O)C1` [EDARAVONE], the 50% inhibitory concentration (IC50) was 250 µM.
